Key:
Assay type in all cases: functional
A549 = experiment: Antiproliferative activity against human A549 cells after 48 hrs by SRB assay; conditions: A549, 48 h
HeLa = experiment: Antiproliferative activity against human HeLa cells after 48 hrs by SRB assay
MDA-MB-231 = experiment: Antiproliferative activity against human MDA-MB-231 cells after 48 hrs by SRB assay; conditions: MDA-MB-231, 48 h
[1] = Antiproliferative activity against human PANC1 cells after 48 hrs by SRB assay; conditions: PANC-1, 48 h

SMILES | GI50 (A549) [nM] | GI50 (HeLa) [nM] | GI50 (MDA-MB-231) [nM] | GI50 [1] [nM]
Cc1cc2c(cc1C)C(Cl)=C(c1nnc(-c3ccc(F)cc3)o1)CCC2 | 2810 | 6420 | 1400 | 520
Cc1cc2c(cc1C)C(Cl)=C(c1nnc(-c3cccc(Cl)c3)o1)CCC2 | 1970 | 5940 | 3310 | 4570
Cc1cc2c(cc1C)C(Cl)=C(c1nnc(-c3cccc(I)c3)o1)CCC2 | 2780 | 4460 | 2670 | 4120
Cc1cc2c(cc1C)C(Cl)=C(c1nnc(-c3cccc(C(F)(F)F)c3)o1)CCC2 | 1970 | 1570 | 2460 | 794
Cc1cc2c(cc1C)C(Cl)=C(c1nnc(-c3ccccc3)o1)CCC2 | 1960 | 4680 | 2760 | 4120
Cc1ccc(-c2nnc(C3=C(Cl)c4cc(C)c(C)cc4CCC3)o2)cc1 | 2470 | 679 | 1760 | 3880
COc1cc(-c2nnc(C3=C(Cl)c4cc(C)c(C)cc4CCC3)o2)cc(OC)c1OC | 1260 | 562 | 956 | 1880
COc1ccc([N+](=O)[O-])c(-c2nnc(C3=C(Cl)c4cc(C)c(C)cc4CCC3)o2)c1OC | 871 | 310 | 1160 | 957
Cc1ccc(-c2nnc(C3=C(Cl)c4ccccc4CCC3)o2)cc1 | 3420 | 79 | 1400 | 6810
COc1cc(-c2nnc(C3=C(Cl)c4ccccc4CCC3)o2)cc(OC)c1OC | 4570 | 1730 | 3320 | 729
O=[N+]([O-])c1ccc(-c2nnc(C3=C(Cl)c4ccccc4CCC3)o2)cc1 | 2610 | 1320 | 3280 | 3980
COc1ccc([N+](=O)[O-])c(-c2nnc(C3=C(Cl)c4ccccc4CCC3)o2)c1OC | 5360 | 2830 | 8280 | 7230
ClC1=C(c2nnc(-c3cccc(I)c3)o2)CCCc2ccccc21 | 2560 | 4100 | 4940 | 2370
Cc1cc2c(cc1C)C(Cl)=C(c1nnc(Nc3ccccc3)s1)CCC2 | 4780 | 4920 | 5780 | 3660
S=c1[nH]nc(C2=C(Cl)c3ccccc3CCC2)o1 | 4960 | 981 | 1010 | 3430
Cc1cc2c(cc1C)C(Cl)=C(c1n[nH]c(=S)o1)CCC2 | 3270 | 4440 | 918 | 2460
ClC1=C(c2nnc(-c3ccccc3)o2)CCCc2ccccc21 | 2270 | 3220 | 1970 | 675
O=C(NNC(=S)Nc1ccccc1)C1=C(Cl)c2ccccc2CCC1 | 4880 | 3870 | 2460 | 5850
Cc1cc2c(cc1C)C(Cl)=C(C(=O)NNC(=S)Nc1ccccc1)CCC2 | 759 | 471 | 3140 | 928
Sc1nnc(C2=C(Cl)c3ccccc3CCC2)n1-c1ccccc1 | 3490 | 5500 | 4930 | 3510
Cc1cc2c(cc1C)C(Cl)=C(c1nnc(S)n1-c1ccccc1)CCC2 | 1490 | 1160 | 2640 | 2650
ClC1=C(c2nnc(Nc3ccccc3)s2)CCCc2ccccc21 | 2350 | 1320 | 947 | 158
COc1cc2c(c(OC)c1OC)-c1ccc(OC)c(=O)cc1[C@@H](NC(C)=O)CC2 [COLCHICINE] | 30 | 40 | < 10 | 10
COc1ccc(C[C@@H](O)c2cc(OC)c(OC)c(OC)c2)cc1O [COMBRETASTATIN] | 10 | 10 | 19 | 20
COc1cccc2c1C(=O)c1c(O)c3c(c(O)c1C2=O)C[C@@](O)(C(=O)CO)C[C@@H]3O[C@H]1C[C@H](N)[C@H](O)[C@H](C)O1 [DOXORUBICIN] | < 10 | < 10 | 20 | < 10
COC(=O)Nc1nc2cc(C(=O)c3cccs3)ccc2[nH]1 [NOCODAZOLE] | 20 | 15 | 17 | < 10
CC(=O)O[C@H]1C(=O)[C@@]2(C)[C@H]([C@H](OC(=O)c3ccccc3)[C@]3(O)C[C@H](OC(=O)[C@H](O)[C@@H](NC(=O)c4ccccc4)c4ccccc4)C(C)=C1C3(C)C)[C@]1(OC(C)=O)CO[C@@H]1C[C@@H]2O [PACLITAXEL] | < 10 | 20 | < 10 | 12
